Tests used:
[1] = system: motor performance on an inverted screen; assay: Rat inverted screen test (motor impairment); conditions: up to 30 mg/kg, rats, inverted screen
Excerpt: The motor effects of Diazepam and KRM-II-81 were studied on the inverted screen. The inverted screen test is used to measure whether or not a test compound induces muscle relaxation. When a test subject is placed on a wire screen which is then inverted, the reaction is to climb to the opposite side so they are no longer hanging upside down.
Male, Sprague Dawley rats (Harlan Sprague Dawley, Indianapolis, Ind.) were used and weighed 90-110 g when evaluated in experiments. […] Rats were placed onto the top of a wire screen, which was then inverted so that the rats were hanging upside down.
Male Sprague-Dawley rats (n=5) were dosed i.p. (vehicle=1% carboxymethyl cellulose) with diazepam (3, 10, or 30 mg/kg), KRM-II-81 (10, 30, or 60 mg/kg) or HZ-166 (30 mg/kg) 30 minutes prior to testing. Rats were placed onto the top of a wire screen, which was then inverted so that the rats were hanging upside down. […] Results were analyzed using ANOVA (Dunnett's test: *P<0.05).
(§1) For the in vivo assays, minimal effective doses (MED) were calculated in mg/kg. MED was defined as the lowest dose administered that produced statistically significant protection compared to vehicle control in the anticonvulsant assays. The MED, or minimal toxic dose (MTD) for motor impairment, was the minimal dose required to produce statistically-significant impairment in motor performance. Doses tested are shown in the figures and tables and are generally dosed in ½ log increments. The protective index (PT) was calculated at the MTD/MED.

[2] = system: human (α2), or rat (α1, α3, α5, γ2L, β3) GABAA receptor subunits; assay: Whole-cell patch-clamp GABA current responses in transfected HEK-293T cells; assay type: cell-based; conditions: GABA EC3-5, drug concentration 100 nM
Protocol: Human […] (HEK-293T) were transiently transfected with full-length cDNAs encoding human (α2), or rat (α1, α3, α5, γ2L, β3) GABAA receptor subunits using calcium phosphate precipitation. Positively transfected cells were isolated by utilizing co-transfection of a plasmid encoding a surface antibody (pHook™-1, Invitrogen). 20-52 hours following transfection, cells were mixed with magnetic beads coated with antigen specific for the pHook antibody, isolated with a magnetic stand, and then plated onto coverslips and used for patch-clamp recordings 18-28 hours later.
Current responses to GABA were recorded in the whole-cell configuration, with cells voltage-clamped at −50 mV. The bath solution contained (in mM): 142 NaCl, 8.1 KCl, 6 MgCl2, 1 CaCl2), and 10 HEPES (4-(2-hydroxyethyl)-1-piperazineethanesulfonic acid) with pH=7.4 and osmolarity adjusted to 295-305 mOsm. The electrode (internal) solution consisted of (in mM); 153 KCl, 1 MgCl2, 5 K-EGTA (ethylene glycol-bis (β-aminoethyl ether N,N,N′N′-tetraacetate)), and 10 HEPES with pH=7.4 and osmolarity adjusted to 295-305 mOsm. […] Currents were recorded with an Axon 200B (Foster City, Calif.) patch clamp amplifier. […] Data were analyzed by two-way ANOVA followed by post-hoc Tukey's multiple comparison test. […]

PTZ-induced clonus = assay: Pentylenetetrazole (PTZ, 35 mg/kg s.c.)-induced clonic convulsions; assay type: in vivo; conditions: for PTZ Clonus to Criteria 1: MED producing maximal protection (0% seizures); for PTZ Clonus Potency (MED): lowest dose with statistically significant protection; for PTZ Clonus Potency (MED) / protection against PTZ-induced clonus: PTZ 35 mg/kg s.c.
Protocol: After the inverted screen test, the rats were dosed with pentylenetetrazole (PTZ)(35 mg/kg, s.c.) in a volume of 1 ml/kg and placed in an observation cage (40.6×20.3×15.2 cm) with a floor containing […] of wood chip bedding material. PTZ dose was determined to be ˜EC97 for producing clonic convulsions.

[3] = system: immobility in forced-swim test; assay: Forced-swim assay; assay type: in vivo, mice
Protocol: Male NIH Swiss mice (Envigo, Indianapolis, Ind.) were studied. Mice were placed in clear plastic cylinders (diameter: 10 cm; height: 25 cm) filled with 6 cm of water (22-25° C.) for six min. […] The duration of immobility during the last four min of the six min test period was scored. A mouse was recorded as immobile when floating motionless or making only those movements necessary to keep its head above water.

[4] = system: electroshock-induced seizures; assay: Mouse electroshock-induced seizure model; assay type: in vivo; conditions: mice
Protocol: This assay detects effects of compounds that produce generalized seizures and those that dampen seizure spread. Male, CD1 mice (Taconic Farms) were studied at weights of 21-32 g. Mice=10/dose) were used with Wahlquist Model H stimulator with 0.2 sec stimulation with corneal electrodes. […] Mice were euthanized immediately following the test. Tonic extension was used as the primary endpoint.
as §1

PTZ seizure threshold = assay: Pentylenetetrazole (PTZ, i.v.)-induced seizure threshold; assay type: in vivo, rats
Protocol: Male […] Sprague-Dawley rats (Indianapolis, Ind.) were randomly assigned to treatment groups and dosed with vehicle (vehicle=1% carboxymethyl cellulose) with diazepam (0.1, 0.3, or 1 mg/kg) or test compound (3, 10, 30, or 60 mg/kg) 30 minutes prior to testing. Rats were placed in a restrainer and a winged infusion needle was inserted into the lateral tail vein. Intravenous infusion with 10 mg/ml PTZ at a rate of 0.5 ml/min was initiated until a clonic convulsion occurred, and the time to clonic convulsion was recorded in sec or a maximum of 4 min was recorded. Following infusion, rats are euthanized. The dose of PTZ required to elicit a clonic convulsion was calculated using the infusion rate, concentration of PTZ, time to clonic convulsion, and animal weight.

[5] = system: seizures in amygdala kindled rats; assay: Basolateral amygdala kindling; assay type: in vivo
Protocol: Seizure kindling models evaluate effects of drugs on the sensitization of the nervous system to seizure induction. In this test, drugs were evaluated for their ability to impact seizure parameters in rats that were fully kindled by daily electrical stimulation of their amygdala. Valproic acid was used as a positive control. Experiments were conducted using the general procedures of Zwart et al. (J. Pharmacol. Exp. Ther., 2014, 351:124-133). A bipolar electrode for electrical stimulation and EEG recording was stereotaxically implanted into one hemisphere of the basolateral amygdala (AP −2.2, ML −4.8, DV −8.5 mm, relative to bregma) of male Wistar rats. After post-operative recovery, electrical kindling begins, where a subthreshold constant current (400 μA, 1 ms, monophasic square-wave pulses, 60 Hz for 1 sec) is given once a day Monday-Friday for about 4-6 weeks until a rat is fully kindled. A fully kindled rat has experienced 10 consecutive stage 5 seizures or 10 of its last 12 were stage 5 according to the Racine Scale.
Twelve fully kindled rats were assigned to this study, and eight rats were selected and randomized to initial compound treatment groups from baseline after discharge threshold (ADT), seizure severity score, and after discharge duration (ADD). […] On test day, rats were dosed 30 min prior to beginning stimulation. After the pre-treatment, rats were stimulated using an ascending staircase sequence beginning at 10 μA and increasing in log unit steps of 10, 16, 25, 40, 65, 100, 160, 250, and 400 μA. Animals were stimulated until they were assigned a Seizure Severity Score for a visually observably seizure or they reached the 400 μA threshold limit. ADD was determined following testing. ADT was the current that induced a seizure; measurements were scale-adjusted to capture the stimulation scale change required to observe a seizure from the previous baseline to the ADT scored on test day. […] The average scale adjusted ADT was approximately 0.63 μA in vehicle treated rats.
Racine score of behavioral response to stimulation: 0=no behavioral response; 1=immobility, staring and/or facial clonus; 2=head nodding, jaw clonus, and/or tongue protrusion; 3=unilateral forelimb clonus; 4=bilateral forelimb clonus and/or rearing; 5=bilateral forelimb clonus with rearing and loss of balance.
After-Discharge Duration (ADD) is the duration of the first after-discharge.
ADT, ADD, and severity scores were analyzed by ANOVA. Seizure severity data was also analyzed by the nonparametric Skillings-Mack test, a generalization of the Friedman test for one-way repeated measures designs. Posthoc tests when reported were either by Dunnett's method (seizure severity) or using Wilcoxon sign rank tests (ADT and ADD). Valproic acid, used as a positive control was not used in ANOVA calculations.

[6] = system: motor performance on inverted screen
Protocol: Without prior pretraining, mice were placed on an 11 cm×14 cm square of round hole, perforated stainless steel mesh (18 holes/square inch, 3/16 inch diameter, ¼ inch staggered centers, 50% open area) mounted on a metal rod, 35 cm above the table top. The screen was slowly inverted such that the mouse was on the underside of the screen. Mice were then scored for 60 sec as follows: 0=climbed to top of screen, 1=hung onto bottom of screen, 2=fell off. Data were analyzed by ANOVA followed by post-hoc Dunnett's test.
The test compounds were suspended in 1% hydroxyethylcellulose/0.05% Tween 80/0.05% Dow antifoam. […] Compounds were administered in a volume of 10 ml/kg and were given 30 min prior to testing via the i.p. route of administration; diazepam was dosed orally, 30 min prior to testing.

C#Cc1ccc2c(c1)C(c1ccccn1)=NCc1c(-c3nc(CC)no3)ncn1-2 [MP-III-080, 3-ethyl-5-(8-ethynyl-6-(pyridin-2-yl)-4H-benzo[f]imidazo[1,5-a][1,4]diazepin-3-yl)-1,2,4-oxadiazole]
effect on motor performance [1]: without significant effect on motor performance
selectivity for α2 and α3 over α1 [2]: selective for α2 and α 3 over α1
PTZ Clonus to Criteria 1 (PTZ-induced clonus; rats): 10 mg/kg
PTZ Clonus Potency (MED) (PTZ-induced clonus; rats): 10 mg/kg
protection against PTZ-induced clonus (PTZ-induced clonus; rats): dose-dependently suppressed
immobility in forced-swim assay ([3]; male NIH Swiss mice, i.p., 30 min prior): significantly decreased immobility time
Electroshock to Criteria ([4]; MED producing maximal protection (0% seizures)): 5.6 mg/kg

CN1C(=O)CN=C(c2ccccc2)c2cc(Cl)ccc21 [Diazepam, diazepam, reference compound]
PTZ Clonus to Criteria 1 (PTZ-induced clonus; rats): 10 mg/kg
potency relative to KRM-II-81 to induce full seizure protection (PTZ-induced clonus; PTZ-induced clonus, rats): 10 ×
convulsions (rats convulsing/tested) after PTZ (PTZ-induced clonus; diazepam 30 mg/kg p.o. + PTZ): 0/5
PTZ Clonus Potency (MED) (PTZ-induced clonus; rats): 10 mg/kg
protection against PTZ-induced clonus (PTZ-induced clonus; rats): fully prevented
PTZ Threshold to Criteria (PTZ seizure threshold; MED for producing ≥2× PTZ seizure threshold at baseline): >1 mg/kg
potency relative to KRM-II-81 and KRM-II-82 (PTZ seizure threshold; PTZ seizure threshold, rats): about 10 times
PTZ Threshold Poteny (MED) (PTZ seizure threshold; lowest dose with statistically significant effect, rats, PTZ i.v.): 1 mg/kg
effect on dose of PTZ required to induce convulsions (PTZ seizure threshold; rats, PTZ i.v. infusion, pretreatment 30 min): increased the dose of PTZ required to induce convulsions
antidepressant-like effect in forced-swim assay ([3]; diazepam 22 mg/kg p.o. alone, mice): did not produce an antidepressant-like effect
After-Discharge Duration to Criteria ([5]; MED for producing after-discharge duration ≤30 sec): >10 mg/kg
After-Discharge Threshold to Criteria ([5]; MED for producing after-discharge threshold ≥3): >10 mg/kg
Seizure Severity to Criteria ([5]; MED for producing seizure severity score ≤2): 10 mg/kg
After-Discharge Duration Potency (MED) ([5]; amygdala kindled rats): >10 mg/kg
After-Discharge Threshold Potency (MED) ([5]; amygdala kindled rats): 10 mg/kg
Seizure Severity Poteny (MED) ([5]; amygdala kindled rats): 10 mg/kg
effect on adjusted after-discharge threshold (ADT) ([5]; amygdala kindled rats): significantly increased
effect on after-discharge duration (ADD) ([5]; amygdala kindled rats): trend for a significant effect
effect on seizure severity score / kindling measures ([5]; amygdala kindled rats): decreased significantly
Seizure free scores (seizure severity=0) ([5]; amygdala kindled rats, groups of 8): 2/8
motor impairment on inverted screen ([6]; diazepam 22 mg/kg p.o., mice): still significant but not maximal
motor impairment score on inverted screen test ([6]; diazepam 30 mg/kg p.o., prior data, out of 2.0): 1.8
potency relative to KRM-II-81 to induce full seizure protection ([4]; electroshock): 5 ×
Electroshock (minimal effective dose, MED) ([4]; lowest dose with statistically significant protection vs vehicle): 3 mg/kg
protection against electroshock-induced seizures [4]: fully prevented
